Activity calls are given as the source filed them.
Columns and labels:
[1] = molecular target: G2/mitotic-specific cyclin-B1 (Homo sapiens, UniProt P14635); assay: Counterscreen assay for inhibitors of Wee1 degradation: dose response cell-based assay to identify inhibitors of cyclin B degradation. [Related pubchem assays: 1410, 1321 ]; type: functional
[2] = molecular target: Wee1-like protein kinase (Homo sapiens, UniProt P30291); assay: Dose Response Cell-based Assay for Inhibitors of Wee1 Degradation. [Related pubchem assays: 1410, 1321 ]; type: functional
Sequence of Wee1-like protein kinase (P30291 whole entry): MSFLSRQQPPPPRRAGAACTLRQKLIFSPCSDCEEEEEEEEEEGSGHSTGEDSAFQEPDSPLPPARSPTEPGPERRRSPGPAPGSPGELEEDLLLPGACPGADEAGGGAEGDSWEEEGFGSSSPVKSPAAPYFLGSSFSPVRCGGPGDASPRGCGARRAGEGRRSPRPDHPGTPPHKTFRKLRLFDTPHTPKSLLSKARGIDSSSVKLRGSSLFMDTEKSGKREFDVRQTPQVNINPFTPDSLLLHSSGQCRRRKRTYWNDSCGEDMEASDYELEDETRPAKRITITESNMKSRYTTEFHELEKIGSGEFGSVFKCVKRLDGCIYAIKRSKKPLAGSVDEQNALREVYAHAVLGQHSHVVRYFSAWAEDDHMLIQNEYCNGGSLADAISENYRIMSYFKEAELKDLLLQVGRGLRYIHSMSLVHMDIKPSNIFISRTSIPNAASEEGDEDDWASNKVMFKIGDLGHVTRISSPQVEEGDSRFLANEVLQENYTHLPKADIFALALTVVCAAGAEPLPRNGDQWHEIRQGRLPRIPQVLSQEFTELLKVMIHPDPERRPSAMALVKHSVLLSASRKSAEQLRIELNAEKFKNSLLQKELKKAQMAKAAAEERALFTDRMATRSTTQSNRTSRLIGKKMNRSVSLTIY

[3] = THP-1 cell cytotoxicity, dose response, cytotoxicity control for non-replicating M. tuberculosis project (AID 489025); type: functional
[4] = Vero E6 cell cytotoxicity, dose response, cytotoxicity control for non-replicating M. tuberculosis project, secondary assay (AID 492998); type: functional, VeroE6; conditions: Vero C1008
[5] = HEK-293T viability loss after treatment – luminescence, T-cell screen hits, cytotoxicity control for TCR NF-kB inhibitor project, dose response (AID 489026); type: functional, cell-based;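 also: cells exposed to compound about 14 hours before the viability readout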
[6] = cells; type: functional
[7] = molecular target: NS3 (Hepatitis C virus, UniProt A3EZJ3); assay: PubChem AID 2173; design: species or system Hepacivirus hominis
Sequence of NS3 (A3EZJ3 whole entry): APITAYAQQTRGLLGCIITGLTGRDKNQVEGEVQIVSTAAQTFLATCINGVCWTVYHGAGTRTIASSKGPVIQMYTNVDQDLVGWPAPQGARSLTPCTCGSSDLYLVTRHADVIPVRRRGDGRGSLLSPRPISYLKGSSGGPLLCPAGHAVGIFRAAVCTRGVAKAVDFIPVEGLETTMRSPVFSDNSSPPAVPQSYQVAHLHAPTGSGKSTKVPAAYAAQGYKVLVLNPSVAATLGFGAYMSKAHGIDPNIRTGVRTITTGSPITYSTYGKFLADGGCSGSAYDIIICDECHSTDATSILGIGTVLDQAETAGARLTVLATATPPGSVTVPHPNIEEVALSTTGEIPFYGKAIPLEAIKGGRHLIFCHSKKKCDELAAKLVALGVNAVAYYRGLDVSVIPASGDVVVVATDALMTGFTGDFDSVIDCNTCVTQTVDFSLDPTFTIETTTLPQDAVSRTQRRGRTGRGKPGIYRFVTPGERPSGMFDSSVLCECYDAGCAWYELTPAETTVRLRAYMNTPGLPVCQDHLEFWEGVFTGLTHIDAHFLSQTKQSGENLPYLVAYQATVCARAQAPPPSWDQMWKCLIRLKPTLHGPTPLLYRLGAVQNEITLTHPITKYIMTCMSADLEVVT

[8] = M. tuberculosis growth inhibition, HTS (AID 449762); type: functional
[9] = molecular target: T1, Heat shock factor protein 1 (Mus musculus, UniProt P38532); assay: enhancement of HSF1-driven luciferase signal – cell-based, NIH3T3, luminescence, dose retest, confirmation (AID 435004); type: functional;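 also: stress induced by proteasome inhibitor MG132 added 30 min after compound; luciferase reporter driven by HSF1 response element in NIH3T3 cells; actives raise luminescence as potentiators of the MG132 stress response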
T1 sequence (P38532 whole entry): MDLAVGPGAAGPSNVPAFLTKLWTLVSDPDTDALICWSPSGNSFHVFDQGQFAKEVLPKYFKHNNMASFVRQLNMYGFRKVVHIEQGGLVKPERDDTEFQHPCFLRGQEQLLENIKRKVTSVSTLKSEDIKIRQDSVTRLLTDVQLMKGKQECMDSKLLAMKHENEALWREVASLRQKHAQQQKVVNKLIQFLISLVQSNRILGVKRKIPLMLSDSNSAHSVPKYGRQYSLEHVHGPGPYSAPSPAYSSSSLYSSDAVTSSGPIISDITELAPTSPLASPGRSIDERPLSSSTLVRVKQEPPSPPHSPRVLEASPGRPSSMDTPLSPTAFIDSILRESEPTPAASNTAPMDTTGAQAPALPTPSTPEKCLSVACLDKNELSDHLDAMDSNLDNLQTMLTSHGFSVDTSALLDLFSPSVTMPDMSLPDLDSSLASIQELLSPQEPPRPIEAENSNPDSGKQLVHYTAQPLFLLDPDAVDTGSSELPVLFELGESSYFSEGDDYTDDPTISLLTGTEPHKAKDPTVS

[10] = viability of uninfected HEp-2 cells – cell-based, HTS, cytotoxicity control for RSV inhibitor project, dose response (AID 2410); type: functional; conditions: human respiratory syncytial virus
[11] = molecular target: Vasopressin V1a receptor (Homo sapiens, UniProt P37288); assay: Counterscreen for Oxytocin Receptor (OXTR) agonists: Fluorescence-based cell-based high throughput dose response assay to identify agonists of the vasopressin 1 receptor (V1R). [Related pubchem assays: 2435 (Primary screen (OXTR agonists in singlicate)), 434991 (Counterscreen (V1R agonists in triplicate)), 2482 (Summary (OXTR agonists)) …; type: functional
Sequence of Vasopressin V1a receptor (P37288 whole entry): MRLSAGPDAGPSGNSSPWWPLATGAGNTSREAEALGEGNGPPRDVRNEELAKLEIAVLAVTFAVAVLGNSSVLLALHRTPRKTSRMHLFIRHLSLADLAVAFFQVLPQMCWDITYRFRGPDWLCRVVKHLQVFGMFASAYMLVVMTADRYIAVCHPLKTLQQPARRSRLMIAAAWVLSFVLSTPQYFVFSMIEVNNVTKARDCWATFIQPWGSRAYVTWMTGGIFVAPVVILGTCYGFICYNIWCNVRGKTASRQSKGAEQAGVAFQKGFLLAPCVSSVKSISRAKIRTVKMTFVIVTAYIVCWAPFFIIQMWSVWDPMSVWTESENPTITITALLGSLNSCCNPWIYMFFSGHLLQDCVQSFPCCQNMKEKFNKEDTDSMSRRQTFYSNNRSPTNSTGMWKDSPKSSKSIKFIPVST

[12] = molecular target: Oxytocin receptor (Homo sapiens, UniProt P30559); assay: Fluorescence-based cell-based high throughput dose response assay for agonists of the Oxytocin Receptor (OXTR). [Related pubchem assays: 2435 (Primary screen (OXTR agonists in singlicate)), 434991 (Counterscreen (V1R agonists in triplicate)), 2482 (Summary (OXTR agonists)), 434963 (Confirmation screen (OXTR agonists in triplicate))]; type: functional
Sequence of Oxytocin receptor (P30559 whole entry): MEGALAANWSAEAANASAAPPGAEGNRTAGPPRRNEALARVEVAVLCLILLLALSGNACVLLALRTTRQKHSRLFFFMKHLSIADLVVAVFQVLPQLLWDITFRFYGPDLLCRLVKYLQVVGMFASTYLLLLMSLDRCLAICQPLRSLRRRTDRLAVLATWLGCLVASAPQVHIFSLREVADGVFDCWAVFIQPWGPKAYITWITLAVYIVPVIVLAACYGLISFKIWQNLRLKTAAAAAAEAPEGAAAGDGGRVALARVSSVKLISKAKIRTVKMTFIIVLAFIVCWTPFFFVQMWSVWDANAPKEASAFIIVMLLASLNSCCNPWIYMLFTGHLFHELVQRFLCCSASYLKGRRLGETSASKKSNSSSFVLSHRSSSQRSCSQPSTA

[13] = molecular target: T2, Corticotropin-releasing factor receptor 2/Corticotropin-releasing factor-binding protein (Homo sapiens, UniProt P24387+Q13324); assay: activators of CRF receptor 2 with binding protein – uHTS hits, confirmation (AID 602473); type: functional; conditions: read-out: EC50_Mean
T2 sequence (Q13324 whole entry): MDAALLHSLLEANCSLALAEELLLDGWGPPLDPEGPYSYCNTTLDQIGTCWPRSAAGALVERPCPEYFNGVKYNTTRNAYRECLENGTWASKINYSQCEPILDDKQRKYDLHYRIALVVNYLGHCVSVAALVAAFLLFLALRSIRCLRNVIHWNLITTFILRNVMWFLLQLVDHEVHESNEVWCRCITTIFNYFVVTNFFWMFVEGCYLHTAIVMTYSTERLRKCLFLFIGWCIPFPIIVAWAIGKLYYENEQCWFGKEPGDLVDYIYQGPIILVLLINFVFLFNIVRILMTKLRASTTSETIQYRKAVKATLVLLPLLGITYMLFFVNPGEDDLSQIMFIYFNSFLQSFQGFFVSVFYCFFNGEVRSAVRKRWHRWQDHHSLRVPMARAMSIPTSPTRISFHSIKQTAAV
T2 sequence (P24387 whole entry): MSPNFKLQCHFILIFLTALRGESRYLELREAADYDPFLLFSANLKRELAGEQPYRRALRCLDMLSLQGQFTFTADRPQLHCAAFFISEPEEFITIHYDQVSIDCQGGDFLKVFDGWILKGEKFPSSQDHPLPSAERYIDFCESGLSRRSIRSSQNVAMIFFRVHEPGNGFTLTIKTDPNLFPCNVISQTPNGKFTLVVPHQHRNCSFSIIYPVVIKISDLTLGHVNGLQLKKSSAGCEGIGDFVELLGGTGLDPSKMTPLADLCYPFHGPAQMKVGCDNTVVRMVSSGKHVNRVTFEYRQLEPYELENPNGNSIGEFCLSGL

[14] = viability loss in Vero cells – cytotoxicity control for Vif-APOBEC3G degradation inhibitor project, dose response (AID 1117358); type: functional; conditions: Vero
[15] = molecular target: T3, Aminopeptidase N (Plasmodium falciparum FcB1/Columbia, UniProt O96935); assay: malaria alanyl aminopeptidase activity blockers – biochemical, fluorogenic H-Leu-NHMec substrate, 1536-well (AID 1445); design: species or system Plasmodium falciparum 3D7, 3D7
T3 sequence (O96935 whole entry): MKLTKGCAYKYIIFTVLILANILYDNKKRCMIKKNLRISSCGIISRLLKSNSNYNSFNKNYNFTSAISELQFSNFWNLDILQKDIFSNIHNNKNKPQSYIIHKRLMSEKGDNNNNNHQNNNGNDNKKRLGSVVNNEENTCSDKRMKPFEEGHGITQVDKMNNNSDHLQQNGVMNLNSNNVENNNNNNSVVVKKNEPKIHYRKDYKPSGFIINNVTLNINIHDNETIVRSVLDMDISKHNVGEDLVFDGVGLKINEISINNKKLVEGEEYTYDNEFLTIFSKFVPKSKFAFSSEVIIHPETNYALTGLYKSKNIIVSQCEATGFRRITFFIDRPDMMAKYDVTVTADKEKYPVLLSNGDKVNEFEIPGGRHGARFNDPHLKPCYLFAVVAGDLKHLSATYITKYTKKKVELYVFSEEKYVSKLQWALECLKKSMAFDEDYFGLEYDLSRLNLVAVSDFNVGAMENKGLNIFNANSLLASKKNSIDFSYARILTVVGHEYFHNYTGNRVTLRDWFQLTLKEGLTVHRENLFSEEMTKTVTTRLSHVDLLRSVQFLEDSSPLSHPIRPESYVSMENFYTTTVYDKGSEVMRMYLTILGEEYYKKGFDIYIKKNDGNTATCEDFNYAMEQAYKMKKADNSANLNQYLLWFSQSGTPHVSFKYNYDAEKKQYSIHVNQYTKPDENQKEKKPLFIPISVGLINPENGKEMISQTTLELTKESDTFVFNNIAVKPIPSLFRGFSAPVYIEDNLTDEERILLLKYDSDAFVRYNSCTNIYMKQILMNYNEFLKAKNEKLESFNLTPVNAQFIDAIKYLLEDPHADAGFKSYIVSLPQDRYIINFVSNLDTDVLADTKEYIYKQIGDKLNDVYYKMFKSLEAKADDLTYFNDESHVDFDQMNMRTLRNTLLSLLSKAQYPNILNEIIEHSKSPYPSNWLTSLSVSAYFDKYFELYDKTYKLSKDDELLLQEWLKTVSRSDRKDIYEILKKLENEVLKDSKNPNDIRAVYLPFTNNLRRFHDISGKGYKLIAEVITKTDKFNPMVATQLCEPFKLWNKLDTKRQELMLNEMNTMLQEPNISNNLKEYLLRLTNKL

[16] = CCR5-tropic HIV-1 fusion blockers – cell-based, CCR5-tropic Env, dose response (AID 2279); type: functional
[17] = molecular target: T4, Cysteine protease ATG4B (Homo sapiens, UniProt Q9Y4P1); type: functional;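 also: Fluorescence-based dose-response confirmation assay measuring inhibition of ATG4B activity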
T4 sequence (Q9Y4P1 whole entry): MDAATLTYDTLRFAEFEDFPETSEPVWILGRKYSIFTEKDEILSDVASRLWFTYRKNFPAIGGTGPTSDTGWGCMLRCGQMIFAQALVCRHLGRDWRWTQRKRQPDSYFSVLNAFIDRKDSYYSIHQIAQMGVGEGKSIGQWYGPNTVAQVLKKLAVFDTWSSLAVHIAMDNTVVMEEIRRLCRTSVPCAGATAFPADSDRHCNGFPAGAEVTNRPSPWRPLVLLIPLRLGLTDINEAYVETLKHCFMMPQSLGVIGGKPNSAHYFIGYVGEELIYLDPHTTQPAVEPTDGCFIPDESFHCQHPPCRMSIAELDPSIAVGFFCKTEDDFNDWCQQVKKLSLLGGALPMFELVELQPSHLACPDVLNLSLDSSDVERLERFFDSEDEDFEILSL

[18] = molecular target: Phospholipase A2 (Homo sapiens, UniProt P04054); type: functional;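 also: confirmatory dose-response counterscreen on phospholipase A2, testing hits that came from an ultra-high-throughput screen for ATG4B inhibitors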
Sequence of Phospholipase A2 (P04054 whole entry): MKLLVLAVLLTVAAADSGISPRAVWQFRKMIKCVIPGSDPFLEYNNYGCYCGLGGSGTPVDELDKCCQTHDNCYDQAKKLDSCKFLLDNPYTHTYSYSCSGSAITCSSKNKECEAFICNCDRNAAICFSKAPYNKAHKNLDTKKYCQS

[19] = molecular target: T2, Corticotropin-releasing factor receptor 2/Corticotropin-releasing factor-binding protein; assay: Dose Response confirmation of uHTS hits for small molecule antagonists of the CRF-binding protein and CRF-R2 receptor complex.; type: functional; conditions: read-out: IC50_Mean
[20] = blockers of CRF-binding protein–CRF-R2 complex – cell-based, uHTS hits, 384-well, dose response (AID 651639); type: functional, Homo sapiens; conditions: read-out: IC50_Mean
[21] = molecular target: Serine/threonine-protein phosphatase PP1-alpha catalytic subunit (Homo sapiens, UniProt P62136); assay: inhibition of protein phosphatase 1 activity – biochemical, fluorescence, dose response (AID 2403);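 also: phosphatase turnover of OMFP into fluorescent 3-O-methylfluorescein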
Sequence of Serine/threonine-protein phosphatase PP1-alpha catalytic subunit (P62136 whole entry): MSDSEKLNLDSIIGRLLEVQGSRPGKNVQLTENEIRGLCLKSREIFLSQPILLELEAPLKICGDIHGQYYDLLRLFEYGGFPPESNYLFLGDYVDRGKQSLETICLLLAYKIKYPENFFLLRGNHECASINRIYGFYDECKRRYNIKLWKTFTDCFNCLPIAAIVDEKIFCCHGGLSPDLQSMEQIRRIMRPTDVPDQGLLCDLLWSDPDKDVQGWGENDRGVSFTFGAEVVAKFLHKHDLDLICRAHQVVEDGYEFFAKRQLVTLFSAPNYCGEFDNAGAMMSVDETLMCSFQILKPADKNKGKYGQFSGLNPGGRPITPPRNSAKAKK

[22] = molecular target: T5, Serine/threonine-protein phosphatase (Homo sapiens, UniProt Q9BPW0); assay: Counterscreen for inhibitors of PP1: fluorescence-based biochemical high throughput dose response assay to identify inhibitors of Protein Phosphatase 5 (PP5). [Related pubchem assays: 2034 (Summary (PP5 inhibitors)), 1987 (PP5 inhibitors in singlate), 2235 (PP1 inhibitors in singlate)]
T5 sequence (Q9BPW0 whole entry): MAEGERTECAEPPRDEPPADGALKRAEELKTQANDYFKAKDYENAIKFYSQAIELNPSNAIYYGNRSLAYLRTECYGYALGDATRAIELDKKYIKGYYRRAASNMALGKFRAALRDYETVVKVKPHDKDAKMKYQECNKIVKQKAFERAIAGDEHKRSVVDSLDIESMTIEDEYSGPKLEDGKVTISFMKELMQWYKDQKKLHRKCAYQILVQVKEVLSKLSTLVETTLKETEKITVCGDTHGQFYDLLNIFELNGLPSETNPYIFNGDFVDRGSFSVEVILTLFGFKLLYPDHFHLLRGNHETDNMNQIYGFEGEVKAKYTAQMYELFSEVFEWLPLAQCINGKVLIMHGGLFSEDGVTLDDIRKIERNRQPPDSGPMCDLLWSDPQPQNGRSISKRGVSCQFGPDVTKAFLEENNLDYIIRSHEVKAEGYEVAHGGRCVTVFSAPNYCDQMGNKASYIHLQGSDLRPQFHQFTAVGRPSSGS

[23] = molecular target: Nonstructural protein 1 (Influenza A virus, UniProt Q194T2); type: functional, Influenza A virus (A/California/07/2009(H1N1))
Sequence of Nonstructural protein 1 (Q194T2 whole entry): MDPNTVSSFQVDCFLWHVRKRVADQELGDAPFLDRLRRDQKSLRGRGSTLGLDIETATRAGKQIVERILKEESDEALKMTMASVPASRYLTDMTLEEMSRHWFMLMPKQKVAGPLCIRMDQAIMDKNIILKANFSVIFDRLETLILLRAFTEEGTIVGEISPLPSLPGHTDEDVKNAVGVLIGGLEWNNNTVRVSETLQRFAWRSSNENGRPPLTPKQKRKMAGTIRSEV

Sequence of G2/mitotic-specific cyclin-B1 (P14635 whole entry): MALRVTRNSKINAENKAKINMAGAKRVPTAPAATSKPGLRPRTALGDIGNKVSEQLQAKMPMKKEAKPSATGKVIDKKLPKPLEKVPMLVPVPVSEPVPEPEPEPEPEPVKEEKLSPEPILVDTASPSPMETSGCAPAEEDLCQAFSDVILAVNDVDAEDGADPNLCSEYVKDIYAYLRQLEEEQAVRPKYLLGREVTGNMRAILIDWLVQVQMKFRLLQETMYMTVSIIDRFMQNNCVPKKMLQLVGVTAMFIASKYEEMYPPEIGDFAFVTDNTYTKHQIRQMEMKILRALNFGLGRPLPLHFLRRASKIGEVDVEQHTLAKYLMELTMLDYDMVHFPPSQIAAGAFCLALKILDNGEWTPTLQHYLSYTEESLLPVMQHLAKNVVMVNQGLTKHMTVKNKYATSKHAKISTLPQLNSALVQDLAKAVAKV

## O=C(N=Nc1c(O)[nH]c2ccc(Br)cc12)c1ccccc1-n1cccc1
[1]
  EC50: > 49.7 µM (not active)
[2]
  EC50: > 49.7 µM (not active)
[3]
  CC50: 1.15 µM (active)
[4]
  CC50: 4.28 µM (active)
[5]
  IC50: > 80 µM (inactive)
[6]
  IC50: > 50 µM (active)

## COc1ccccc1/C=C/C1=NC(=C\C=C/c2ccccc2)/C(=O)O1
[7]
  IC50: 24.1 µM (not active)
[8]
  IC50: > 100 µM (active)
[9]
  EC50: > 260 µM (inactive)

## Cc1[nH]c2ccccc2c1C(=O)CN1C(=O)NC(C)(c2ccc(Cl)cc2Cl)C1=O (centres undefined)
[10]
  CC50: 13.9 µM (active)
[11]
  EC50: > 29.9 µM (not active)
[12]
  EC50: > 29.9 µM (not active)
[13]
  EC50: 7.59 µM (active)
[14]
  CC50: 38.2 µM (active)

## Cc1ccc(N2C(=O)/C(=C\Nc3ccccc3-c3nnc(S)nc3O)c3ccccc3C2=O)c(C)c1
[15]
  IC50: 27.4 µM (active)
[16]
  IC50: 39.9 µM (active)
[17]
  IC50: 14 µM (active)
[18]
  IC50: 10 µM (active)
[19]
  IC50: 3.83 µM (active)
[13]
  EC50: > 53 µM (inactive)
[20]
  IC50: > 20 µM (inactive)

## O=C(Nc1nc(-c2ccccn2)cs1)C1CC(=O)N(c2ccc3c(c2)OCCO3)C1 (centres undefined)
[21]
  IC50: 5.98 µM (active)
[22]
  IC50: > 67 µM (not active)
[23]
  IC50: 13.5 µM (active)
